# Earlier results as cited in US9233901B2, “Synthetic navel orangeworm pheromone composition and methods relating to production of same” (Suterra LLC, priority 2008, dated 2016).
# Tested on: major pheromone binding protein (AtraPBP)
# Conditions: shown in other studies (Leal et al. 2005)
compound,measurement,value
"CC/C=C\C=C/CCCCCCCCCC=O [HDAL, (Z, Z)-11,13-hexadecadienal]",affinity for binding to a major pheromone binding protein (AtraPBP),high affinity
